{
  "source": "ChEMBL document CHEMBL5465560",
  "about": "“Selectivity Literature for EUbOPEN Chemogenomic Library” (2024)",
  "key": {"[1]": {"target": "T1, Dual specificity mitogen-activated protein kinase kinase 4 (Homo sapiens) (UniProt P45985)", "T1 sequence (whole entry)": "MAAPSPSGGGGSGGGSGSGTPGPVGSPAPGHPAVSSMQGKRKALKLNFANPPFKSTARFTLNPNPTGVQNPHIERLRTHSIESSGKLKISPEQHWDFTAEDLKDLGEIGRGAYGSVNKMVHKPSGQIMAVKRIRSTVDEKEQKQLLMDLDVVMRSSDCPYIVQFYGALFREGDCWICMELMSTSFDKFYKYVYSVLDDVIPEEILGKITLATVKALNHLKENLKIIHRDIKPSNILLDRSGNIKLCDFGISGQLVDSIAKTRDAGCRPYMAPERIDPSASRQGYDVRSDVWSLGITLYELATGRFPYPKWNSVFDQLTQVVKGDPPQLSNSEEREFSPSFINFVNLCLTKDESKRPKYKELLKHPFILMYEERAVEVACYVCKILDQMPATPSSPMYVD", "experiment": "Selectivity interaction (KinomeScan (DiscoverX)) EUB0000666a MAP2K4", "details": "at 10 µM"}, "[2]": {"target": "Mitogen-activated protein kinase 14 (Homo sapiens, UniProt Q16539)", "sequence (Q16539 whole entry)": "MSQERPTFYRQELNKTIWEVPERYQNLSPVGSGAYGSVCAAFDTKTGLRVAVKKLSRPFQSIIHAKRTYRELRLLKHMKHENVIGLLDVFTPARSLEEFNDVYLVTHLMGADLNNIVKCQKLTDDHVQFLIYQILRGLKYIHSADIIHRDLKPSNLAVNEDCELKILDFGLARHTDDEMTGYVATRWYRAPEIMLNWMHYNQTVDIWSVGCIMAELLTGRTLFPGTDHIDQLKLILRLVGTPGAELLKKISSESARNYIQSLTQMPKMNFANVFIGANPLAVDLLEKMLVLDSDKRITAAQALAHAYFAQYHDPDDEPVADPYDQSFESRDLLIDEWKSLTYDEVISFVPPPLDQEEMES", "experiment": "Selectivity interaction (KinomeScan (DiscoverX)) EUB0000666a MAPK14", "details": "at 10 µM"}, "[3]": {"target": "T2, Dual specificity mitogen-activated protein kinase kinase 6 (Homo sapiens) (UniProt P52564)", "T2 sequence (whole entry)": "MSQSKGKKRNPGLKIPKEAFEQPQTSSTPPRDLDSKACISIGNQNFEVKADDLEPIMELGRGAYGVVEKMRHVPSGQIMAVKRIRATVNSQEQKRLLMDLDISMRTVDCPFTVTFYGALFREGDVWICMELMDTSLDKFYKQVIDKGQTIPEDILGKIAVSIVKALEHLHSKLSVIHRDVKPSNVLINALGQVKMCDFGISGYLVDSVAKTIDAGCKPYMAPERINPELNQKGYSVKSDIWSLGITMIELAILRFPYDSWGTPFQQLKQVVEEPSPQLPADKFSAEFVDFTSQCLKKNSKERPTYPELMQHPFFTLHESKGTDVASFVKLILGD", "experiment": "Selectivity interaction (KinomeScan (DiscoverX)) EUB0000607a MAP2K6", "details": "at 10 µM"}, "[4]": {"target": "Ribosomal protein S6 kinase alpha-3 (Homo sapiens, UniProt P51812)", "sequence (P51812 whole entry)": "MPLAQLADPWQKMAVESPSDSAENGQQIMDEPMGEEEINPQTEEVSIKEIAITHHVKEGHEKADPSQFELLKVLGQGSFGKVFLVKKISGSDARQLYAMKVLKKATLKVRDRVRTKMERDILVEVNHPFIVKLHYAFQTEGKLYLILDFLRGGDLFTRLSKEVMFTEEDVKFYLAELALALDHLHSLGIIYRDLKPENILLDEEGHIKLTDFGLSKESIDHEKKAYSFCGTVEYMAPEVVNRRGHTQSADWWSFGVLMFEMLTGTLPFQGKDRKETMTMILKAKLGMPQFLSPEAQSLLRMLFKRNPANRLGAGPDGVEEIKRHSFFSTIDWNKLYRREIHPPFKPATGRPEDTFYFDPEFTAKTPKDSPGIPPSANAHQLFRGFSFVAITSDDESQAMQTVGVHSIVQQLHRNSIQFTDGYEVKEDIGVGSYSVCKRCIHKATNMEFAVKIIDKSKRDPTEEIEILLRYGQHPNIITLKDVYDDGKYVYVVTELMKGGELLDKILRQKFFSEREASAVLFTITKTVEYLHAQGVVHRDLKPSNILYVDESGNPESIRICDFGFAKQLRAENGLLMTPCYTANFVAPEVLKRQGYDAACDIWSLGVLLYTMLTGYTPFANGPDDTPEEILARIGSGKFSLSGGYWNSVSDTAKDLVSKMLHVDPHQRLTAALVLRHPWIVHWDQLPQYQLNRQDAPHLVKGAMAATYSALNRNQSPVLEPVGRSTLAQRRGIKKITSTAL", "experiment": "Selectivity interaction (SelectScreen profiling (Invitrogen)) EUB0000607a RPS6KA3", "details": "at 2 µM"}, "[5]": {"target": "Non-receptor tyrosine-protein kinase TYK2 (Homo sapiens, UniProt P29597)", "experiment": "Selectivity interaction (KinomeScan (DiscoverX)) EUB0000607a TYK2", "details": "at 10 µM"}, "[6]": {"target": "Serine/threonine-protein kinase N1 (Homo sapiens, UniProt Q16512)", "sequence (Q16512 2-942 limits assumed)": "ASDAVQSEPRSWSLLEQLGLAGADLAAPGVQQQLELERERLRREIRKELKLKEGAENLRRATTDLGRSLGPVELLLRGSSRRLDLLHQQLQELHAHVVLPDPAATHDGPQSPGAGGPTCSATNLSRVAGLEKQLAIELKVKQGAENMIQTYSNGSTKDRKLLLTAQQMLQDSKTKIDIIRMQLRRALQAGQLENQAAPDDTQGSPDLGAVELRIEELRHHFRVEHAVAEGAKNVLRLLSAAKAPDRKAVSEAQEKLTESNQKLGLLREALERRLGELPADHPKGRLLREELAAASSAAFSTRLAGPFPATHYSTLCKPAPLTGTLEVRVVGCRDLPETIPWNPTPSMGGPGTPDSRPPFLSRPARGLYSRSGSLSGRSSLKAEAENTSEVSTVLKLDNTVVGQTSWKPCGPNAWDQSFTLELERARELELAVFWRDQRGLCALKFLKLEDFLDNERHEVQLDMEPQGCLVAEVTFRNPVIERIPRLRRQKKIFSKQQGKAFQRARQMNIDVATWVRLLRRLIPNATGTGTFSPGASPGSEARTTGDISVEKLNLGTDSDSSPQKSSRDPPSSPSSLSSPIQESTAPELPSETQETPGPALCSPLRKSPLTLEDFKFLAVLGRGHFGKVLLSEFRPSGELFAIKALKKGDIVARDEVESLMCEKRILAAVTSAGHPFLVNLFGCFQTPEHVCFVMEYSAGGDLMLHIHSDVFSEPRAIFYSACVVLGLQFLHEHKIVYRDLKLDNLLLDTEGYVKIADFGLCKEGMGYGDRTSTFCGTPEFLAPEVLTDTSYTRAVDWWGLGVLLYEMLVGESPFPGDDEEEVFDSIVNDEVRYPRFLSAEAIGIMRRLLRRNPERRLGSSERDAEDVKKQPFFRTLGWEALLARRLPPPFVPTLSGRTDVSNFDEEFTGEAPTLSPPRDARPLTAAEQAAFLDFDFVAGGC", "experiment": "Selectivity interaction (ActivX KiNativ screen (kinase selectivity in THP-1 cell lysates)) EUB0000639a PKN1", "type": "subcellular", "details": "lysate, at 0.01 µM"}, "[7]": {"tested_on": "Epidermal growth factor receptor (Homo sapiens), P00533 [UNDEFINED MUTATION]", "experiment": "Selectivity interaction (ProQinase) EUB0000171b EGFR", "details": "at 1 µM"}, "[8]": {"target": "T3, Mitogen-activated protein kinase kinase kinase 2 (Homo sapiens) (UniProt Q9Y2U5)", "T3 sequence (whole entry)": "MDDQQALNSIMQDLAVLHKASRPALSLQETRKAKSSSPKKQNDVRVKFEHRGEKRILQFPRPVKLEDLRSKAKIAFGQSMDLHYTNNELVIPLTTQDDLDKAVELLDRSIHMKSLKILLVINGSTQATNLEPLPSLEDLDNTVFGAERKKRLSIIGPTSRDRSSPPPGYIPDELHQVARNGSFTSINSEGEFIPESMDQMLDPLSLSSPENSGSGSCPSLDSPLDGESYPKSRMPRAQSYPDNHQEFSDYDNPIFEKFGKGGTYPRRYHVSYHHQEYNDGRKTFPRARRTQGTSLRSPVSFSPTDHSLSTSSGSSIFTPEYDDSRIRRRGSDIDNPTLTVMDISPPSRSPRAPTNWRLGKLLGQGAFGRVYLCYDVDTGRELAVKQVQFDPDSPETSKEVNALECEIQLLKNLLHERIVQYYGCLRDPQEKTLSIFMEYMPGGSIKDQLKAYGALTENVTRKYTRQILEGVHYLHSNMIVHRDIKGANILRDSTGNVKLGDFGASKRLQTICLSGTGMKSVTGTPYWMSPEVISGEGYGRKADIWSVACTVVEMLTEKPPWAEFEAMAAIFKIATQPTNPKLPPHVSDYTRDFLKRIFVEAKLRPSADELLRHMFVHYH", "experiment": "Selectivity interaction (ProQinase) EUB0000171b MAP3K2"}, "[9]": {"target": "Serine/threonine-protein kinase VRK2 (Homo sapiens) (UniProt Q86Y07)", "sequence (Q86Y07 whole entry)": "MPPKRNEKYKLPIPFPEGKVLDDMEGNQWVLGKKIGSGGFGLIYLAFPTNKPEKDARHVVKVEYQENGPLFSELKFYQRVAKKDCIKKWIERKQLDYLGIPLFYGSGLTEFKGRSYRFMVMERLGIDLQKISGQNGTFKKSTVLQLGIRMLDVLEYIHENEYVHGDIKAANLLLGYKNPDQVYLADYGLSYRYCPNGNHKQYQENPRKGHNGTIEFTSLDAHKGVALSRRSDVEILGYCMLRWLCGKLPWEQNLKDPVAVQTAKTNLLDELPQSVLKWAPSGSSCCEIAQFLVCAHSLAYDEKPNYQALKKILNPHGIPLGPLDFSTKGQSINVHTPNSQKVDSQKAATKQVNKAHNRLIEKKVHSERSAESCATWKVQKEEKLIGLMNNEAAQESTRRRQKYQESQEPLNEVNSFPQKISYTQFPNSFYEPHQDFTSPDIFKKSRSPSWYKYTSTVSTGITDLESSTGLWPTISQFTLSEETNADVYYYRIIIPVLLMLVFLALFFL", "experiment": "Selectivity interaction (KinomeScan (DiscoverX)) EUB0000695a VRK2", "details": "at 100 nM"}, "[10]": {"target": "Hepatocyte growth factor-like protein (Homo sapiens) (UniProt P26927)"}, "[11]": {"target": "T4, Rho-associated protein kinase 2 (Homo sapiens, UniProt O75116)", "T4 sequence (O75116 whole entry, looked up)": "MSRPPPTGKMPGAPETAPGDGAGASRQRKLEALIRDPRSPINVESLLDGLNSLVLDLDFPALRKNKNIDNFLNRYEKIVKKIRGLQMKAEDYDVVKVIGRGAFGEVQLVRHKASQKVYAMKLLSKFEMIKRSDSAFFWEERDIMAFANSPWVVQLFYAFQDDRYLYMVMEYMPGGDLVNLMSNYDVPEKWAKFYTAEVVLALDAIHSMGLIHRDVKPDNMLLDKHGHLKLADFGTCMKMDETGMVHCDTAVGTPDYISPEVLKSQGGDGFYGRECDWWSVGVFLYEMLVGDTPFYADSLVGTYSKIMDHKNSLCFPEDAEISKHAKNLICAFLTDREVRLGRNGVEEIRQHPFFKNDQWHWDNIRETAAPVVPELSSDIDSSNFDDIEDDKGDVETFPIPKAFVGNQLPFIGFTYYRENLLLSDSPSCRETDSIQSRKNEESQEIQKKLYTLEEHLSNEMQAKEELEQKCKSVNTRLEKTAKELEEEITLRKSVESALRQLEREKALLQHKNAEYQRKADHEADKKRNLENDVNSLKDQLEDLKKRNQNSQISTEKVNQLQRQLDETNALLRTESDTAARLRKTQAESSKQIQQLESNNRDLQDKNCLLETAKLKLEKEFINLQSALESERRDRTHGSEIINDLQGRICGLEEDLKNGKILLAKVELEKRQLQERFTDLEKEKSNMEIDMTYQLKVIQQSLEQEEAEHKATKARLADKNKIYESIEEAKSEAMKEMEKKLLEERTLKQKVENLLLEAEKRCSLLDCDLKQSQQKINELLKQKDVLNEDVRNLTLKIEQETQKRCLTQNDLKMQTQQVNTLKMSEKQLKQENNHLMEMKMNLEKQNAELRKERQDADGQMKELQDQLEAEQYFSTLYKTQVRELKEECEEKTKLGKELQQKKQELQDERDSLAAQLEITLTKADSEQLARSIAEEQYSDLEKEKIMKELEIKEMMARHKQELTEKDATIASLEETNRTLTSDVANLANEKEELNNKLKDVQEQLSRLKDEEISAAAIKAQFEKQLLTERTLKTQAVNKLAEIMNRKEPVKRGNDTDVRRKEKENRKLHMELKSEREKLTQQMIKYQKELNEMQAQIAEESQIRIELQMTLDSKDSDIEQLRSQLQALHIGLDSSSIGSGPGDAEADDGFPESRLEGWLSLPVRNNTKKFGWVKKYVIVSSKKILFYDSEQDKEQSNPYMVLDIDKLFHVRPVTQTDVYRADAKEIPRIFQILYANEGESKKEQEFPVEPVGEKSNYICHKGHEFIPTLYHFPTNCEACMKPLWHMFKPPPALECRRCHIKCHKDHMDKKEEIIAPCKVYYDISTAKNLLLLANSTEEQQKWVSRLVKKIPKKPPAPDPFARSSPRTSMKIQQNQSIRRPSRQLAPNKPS", "experiment": "Selectivity interaction (KinomeScan (DiscoverX)) EUB0001079a ROCK2", "details": "at 1 µM"}, "[12]": {"target": "T5, Histone-arginine methyltransferase CARM1 (Homo sapiens) (UniProt Q86X55)", "T5 sequence (whole entry)": "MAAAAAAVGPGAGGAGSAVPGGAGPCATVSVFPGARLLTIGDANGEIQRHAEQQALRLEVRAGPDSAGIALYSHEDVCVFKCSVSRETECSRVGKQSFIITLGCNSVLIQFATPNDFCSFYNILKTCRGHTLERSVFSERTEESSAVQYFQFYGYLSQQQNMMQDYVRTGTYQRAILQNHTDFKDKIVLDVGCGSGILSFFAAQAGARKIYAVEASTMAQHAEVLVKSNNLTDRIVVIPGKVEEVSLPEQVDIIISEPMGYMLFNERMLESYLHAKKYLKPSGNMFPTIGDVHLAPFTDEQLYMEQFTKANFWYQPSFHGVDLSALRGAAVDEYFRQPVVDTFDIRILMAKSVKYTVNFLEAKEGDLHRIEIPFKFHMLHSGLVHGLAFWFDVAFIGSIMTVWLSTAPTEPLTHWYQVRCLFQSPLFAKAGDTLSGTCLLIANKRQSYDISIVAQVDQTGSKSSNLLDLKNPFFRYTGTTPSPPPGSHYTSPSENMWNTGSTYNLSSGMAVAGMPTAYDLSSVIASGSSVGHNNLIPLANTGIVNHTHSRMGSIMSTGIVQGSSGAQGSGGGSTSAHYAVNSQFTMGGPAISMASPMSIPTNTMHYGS", "details": "KMS-12-BM, at 3 µM"}, "[13]": {"target": "T4, Rho-associated protein kinase 2", "experiment": "Selectivity interaction (KinomeScan (DiscoverX)) EUB0000229b ROCK2", "details": "at 10 µM"}, "[14]": {"target": "Serine/threonine-protein kinase PLK1 (Homo sapiens, UniProt P53350)", "experiment": "Selectivity interaction (KinomeScan (DiscoverX)) EUB0000092b PLK1", "details": "at 10 µM"}, "[15]": {"target": "Platelet-derived growth factor receptor alpha (Homo sapiens, UniProt P16234)", "details": "at 10 µM"}, "[16]": {"target": "Protein kinase C theta type (Homo sapiens, UniProt Q04759)", "sequence (Q04759 whole entry, looked up)": "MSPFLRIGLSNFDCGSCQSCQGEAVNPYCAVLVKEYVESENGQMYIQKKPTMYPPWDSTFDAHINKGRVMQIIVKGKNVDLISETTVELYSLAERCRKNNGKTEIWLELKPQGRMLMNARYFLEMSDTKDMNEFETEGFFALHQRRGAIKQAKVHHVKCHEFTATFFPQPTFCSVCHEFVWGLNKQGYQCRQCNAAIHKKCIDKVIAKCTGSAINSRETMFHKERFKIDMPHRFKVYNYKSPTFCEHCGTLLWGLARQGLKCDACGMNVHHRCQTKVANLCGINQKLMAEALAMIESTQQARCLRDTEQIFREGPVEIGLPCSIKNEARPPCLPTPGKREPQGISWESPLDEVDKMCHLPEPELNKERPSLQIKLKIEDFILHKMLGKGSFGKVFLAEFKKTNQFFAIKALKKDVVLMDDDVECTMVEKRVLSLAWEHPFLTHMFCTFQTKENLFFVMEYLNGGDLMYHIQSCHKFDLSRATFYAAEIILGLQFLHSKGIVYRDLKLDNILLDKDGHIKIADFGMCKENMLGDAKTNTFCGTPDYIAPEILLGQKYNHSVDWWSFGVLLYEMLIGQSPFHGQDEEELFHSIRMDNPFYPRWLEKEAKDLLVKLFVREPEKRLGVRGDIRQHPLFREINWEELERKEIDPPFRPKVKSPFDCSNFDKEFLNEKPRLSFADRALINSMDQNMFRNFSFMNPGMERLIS", "experiment": "Selectivity interaction (KinomeScan (DiscoverX)) EUB0001619a PRKCQ", "details": "at 1 µM"}},
  "data": [
    {"smiles": "O=C(NOC[C@H](O)CO)c1ccc(F)c(F)c1Nc1ccc(I)cc1F", "values": [
      {"measurement": "% of control", "setting": "[1]", "result": 83, "unit": "%"},
      {"measurement": "% of control", "setting": "[2]", "result": 100, "unit": "%"}
    ]},
    {"smiles": "CNC(=O)Nc1ccc(-c2nc(N3CC4CCC(C3)O4)c3cnn(C4CCC5(CC4)OCCO5)c3n2)cc1", "values": [
      {"measurement": "% of control", "setting": "[3]", "result": 95, "unit": "%"},
      {"measurement": "% of inhibition", "setting": "[4]", "result": -2, "unit": "%"},
      {"measurement": "% of control", "setting": "[5]", "result": 100, "unit": "%"}
    ]},
    {"smiles": "CC[C@@H]1[C@H](F)C(=O)N[C@@H]1COc1nccc2cc(C(N)=O)c(OC)cc12", "note": "[ZIMLOVISERTIB]", "values": [
      {"measurement": "% of inhibition", "setting": "[6]", "result": -9.7, "unit": "%"}
    ]},
    {"smiles": "C=CC(=O)Nc1cccc(C(=O)Nc2ccc(Nc3cc(-c4[nH]c(SC)nc4C)ccn3)cc2)c1", "values": [
      {"measurement": "% of control", "setting": "[7]", "result": 101, "unit": "%"},
      {"measurement": "% of control", "setting": "[8]; at 1 µM", "result": 99, "unit": "%"},
      {"measurement": "% of control", "setting": "[8]; at 5 µM", "result": 88, "unit": "%"}
    ]},
    {"smiles": "Cc1cc(F)c(C(=O)Nc2cccc(-c3nncn3C(C)C)n2)cc1-n1cnc(C2CC2)c1", "values": [
      {"measurement": "% of control", "setting": "[9]", "result": 100, "unit": "%"}
    ]},
    {"smiles": "Cc1cnc(Nc2ccc(F)cc2Cl)nc1-c1c[nH]c(C(=O)N[C@H](CO)c2cccc(Cl)c2)c1", "values": [
      {"measurement": "% of inhibition", "setting": "[10]", "result": 4, "unit": "%"}
    ]},
    {"smiles": "Nc1cnc(N2CCc3cc(S(=O)(=O)Nc4c(F)cc(Cl)cc4F)cc(N4CCCC4=O)c32)nc1", "note": "[TP-020n]", "values": [
      {"measurement": "% of control", "setting": "[11]", "result": 100, "unit": "%"}
    ]},
    {"smiles": "CNCCN1CCC(c2cc(CN(C)C(=O)c3cccc(Oc4ccccc4)c3)ccn2)CC1", "values": [
      {"measurement": "% of growth rate", "setting": "[12]", "result": -8.2, "unit": "%"}
    ]},
    {"smiles": "COc1cc(N(C)c2ccnc3ccc(C(F)(F)F)cc23)cc(OC)c1OC", "values": [
      {"measurement": "% binding", "setting": "[13]", "result": 100, "unit": "%"}
    ]},
    {"smiles": "CCC(=O)N1CCN(c2ccc(-n3c(=O)ccc4cnc5ccc(-c6cnc7ccccc7c6)cc5c43)cc2C(F)(F)F)CC1", "values": [
      {"measurement": "% of control", "setting": "[14]", "result": 85, "unit": "%"}
    ]},
    {"smiles": "Cc1cc([C@@H](C)Nc2ccccc2C(=O)O)c2nc(N3CCOCC3)cc(=O)n2c1", "note": "[AZD-6482]", "values": [
      {"measurement": "% of control", "setting": "[15]", "result": 84, "unit": "%"}
    ]},
    {"smiles": "N#Cc1cccc(-c2c[nH]c3ncnc(N4CCOCC4)c23)c1", "values": [
      {"measurement": "% of control", "setting": "[16]", "result": 77, "unit": "%"}
    ]}
  ]
}
